Holding throughout (test): pre-emergence test, weed control
Conditions in all cases: pre-emergent, 28 DAT; rate g ai/ha by row: r5 94, r6 125, r7 250, r8 3.28, r9 6.56, r10 13.1, r11 94+3.28, r12 94+6.56, r13 94+13.1, r14 125+3.28, r15 125+6.56, r16 125+13.1

In assay [1] the test system is Common lambsquarters (CHEAL). The class given is in vivo, Chenopodium album. How it is done:
(§1) Test compositions containing the test compounds were diluted with water to provide the appropriate test rate concentrations.
(§2) For pre-emergence testing, four disposable fiber flats (6 inch by 10 inch) for each rate of application of each herbicide solution were filled with top soil, to which seeds of each species were planted in furrows made by a template pressed on the top of the soil. The furrows were covered with soil after planting the seed and were watered well before application of the test compounds.
(§3) Fiber flats designated for treatment were placed in a spray chamber having a static platform and a movable sprayer and the height of the spray nozzle was 10.5 inches above the soil level. Once the sprayer was calibrated using water for spray volume of 30 gallons per acre, flats were sprayed with sprayer at a speed to receive a coverage equivalent of 30 gallons per acre. The application rates are those shown in the Tables below for the individual herbicidal solutions and the herbicide compositions of this invention. The pre-emergence flats were immediately placed in the greenhouse and watered lightly after treatment. Thereafter they were regularly watered and fertilized for the duration of the test.
(§4) The control of weeds was evaluated in each experimental test at 21 for wheat and 28 days after treatment (DAT) for all species. Data were analyzed using Minitab software at 95% confidence interval. The results, shown as an average of the replications, were compared with results observed in untreated control flats in the same tests. Percent control was determined by a method similar to the 0 to 100 rating system disclosed in “Research Methods in Weed Science,” 2nd ed., B. Truelove, Ed.; Southern Weed Science Society; Auburn University, Auburn, Ala., 1977. The rating system is as follows in Table 1.

The test system of assay [2] is Kochia (KCHSC). The class given is in vivo. As to the method:
as §1, §2, §3, §4

In assay [3] the test system is Rice flatsedge (CYPIR). It counts as in vivo. How it is done:
as §1, §2, §3, §4

The structures appear in SMILES notation. “And” between values parts separate entries of the source, which are not always exact repeats. Identical values can stand only once.

For the compound `COC(=O)c1c(Cl)nn(C)c1S(=O)(=O)NC(=O)Nc1nc(OC)cc(OC)n1` [Halosulfuron-methyl], the “percentage of weed control, Common lambsquarters CHEAL” value in assay [1] is 86% and 56% and 90%. The “percentage of weed control, Kochia KCHSC” value in assay [2] was 66% and 38% and 40%. Moreover, the “percentage of weed control, Rice flatsedge CYPIR” value in assay [3] is 95% and 71% and 99%.
